Experimental data published in ChEMBL document CHEMBL1156364, “Chondropsin D, a new 37-membered-ring macrolide lactam from the marine sponge Chondropsis species” (J Nat Prod, 2001).
In brackets after ≈: the same amount, converted by molar mass.

Tests used:
[1] = Cytotoxicity against human LOX cells after 2 days by XTT assay; format: functional, cell-based; conditions: 48 h
MOLT-4 = test: Cytotoxicity against human MOLT4 cells after 2 days by XTT assay; format: functional, cell-based; conditions: MOLT-4, 48 h

COC(=O)C(C)(C)C(O)C(C)C(=O)C(C)(C)/C=C/C(=O)NC(C(O)C(C)C)C(O)C(C)/C=C(\C)C(O)C(C)CCC(O)C(C)C(=O)NC1C(C)OC(=O)C(C(O)C(=O)O)NC(=O)/C=C/C=C/CC/C=C/C=C/C[C@@H]2C[C@@H](C)C[C@@H](CC(O)C(C)C(O)/C(C)=C/C(C)C(O)/C(C)=C/CC(OC(=O)CC(O)C(=O)O)C(C)C1O)O2 (some centres not stated) [CHONDROPSIN D]
IC50 [1]: 0.01 µg/mL (≈ 0.00629 µM) | IC50 (MOLT-4): 0.25 µg/mL (≈ 0.157 µM)
